This is an account of results in ChEMBL document CHEMBL5335852, “The Promiscuous Flavin-Dependent Monooxygenase PboD from Aspergillus ustus Increases the Structural Diversity of Hydroxylated Pyrroloindoline Diketopiperazines” (J Nat Prod, 2024).

Calls of active or inactive are those of the source. The rule behind the calls is not given here.

The first test concerns Escherichia coli. The test is described as follows: Antibacterial activity against Escherichia coli ATCC 35218 assessed as inhibition of bacterial growth incubated for 20 hrs by agar disk-diffusion method. It is filed as functional, organism-based.
For `O=C1N[C@@H](Cc2c[nH]c3ccccc23)C(=O)N2[C@H]1C[C@@]1(O)c3ccccc3N[C@@H]21`, the result was inactive.

As for `CSCC[C@@H]1NC(=O)[C@@H]2C[C@@]3(O)c4ccccc4N[C@H]3N2C1=O`, the outcome was inactive.

On to `O=C1N[C@@H](Cc2ccccc2)C(=O)N2[C@H]1C[C@@]1(O)c3ccccc3N[C@@H]21`, for which the result was inactive.

In the case of `O=C1N[C@@H](Cc2ccc(O)cc2)C(=O)N2[C@H]1C[C@@]1(O)c3ccccc3N[C@@H]21`, the result was inactive.

On to `C[C@@H]1NC(=O)[C@@H]2C[C@@]3(O)c4ccccc4N[C@H]3N2C1=O`, for which the result was inactive.

As to `CC(C)C[C@@H]1NC(=O)[C@@H]2C[C@@]3(O)c4ccccc4N[C@H]3N2C1=O`, the result was inactive.

The next test deals with Enterococcus faecalis. The experiment in a line: Antibacterial activity against Enterococcus faecalis DSM 2570 assessed as inhibition of bacterial growth incubated for 20 hrs by agar disk-diffusion method. It is filed as functional, organism-based. A general note: A growth-free zone around the sample is the usual read-out of agar diffusion tests.
On to `O=C1N[C@@H](Cc2c[nH]c3ccccc23)C(=O)N2[C@H]1C[C@@]1(O)c3ccccc3N[C@@H]21`, for which the result was inactive.

Regarding `CSCC[C@@H]1NC(=O)[C@@H]2C[C@@]3(O)c4ccccc4N[C@H]3N2C1=O`, the outcome was inactive.

In the case of `O=C1N[C@@H](Cc2ccccc2)C(=O)N2[C@H]1C[C@@]1(O)c3ccccc3N[C@@H]21`, the result was inactive.

`O=C1N[C@@H](Cc2ccc(O)cc2)C(=O)N2[C@H]1C[C@@]1(O)c3ccccc3N[C@@H]21`: the result was inactive.

In the case of `C[C@@H]1NC(=O)[C@@H]2C[C@@]3(O)c4ccccc4N[C@H]3N2C1=O`, the result was inactive.

For the compound `CC(C)C[C@@H]1NC(=O)[C@@H]2C[C@@]3(O)c4ccccc4N[C@H]3N2C1=O`, the result was inactive.

The subject of a further test is Klebsiella pneumoniae. The experiment in a line: Antibacterial activity against Klebsiella pneumoniae DSM 26371 assessed as inhibition of bacterial growth incubated for 20 hrs by agar disk-diffusion method. It is filed as functional, organism-based.
Regarding `O=C1N[C@@H](Cc2c[nH]c3ccccc23)C(=O)N2[C@H]1C[C@@]1(O)c3ccccc3N[C@@H]21`, the outcome was inactive.

On to `CSCC[C@@H]1NC(=O)[C@@H]2C[C@@]3(O)c4ccccc4N[C@H]3N2C1=O`, for which the result was inactive.

For the compound `O=C1N[C@@H](Cc2ccccc2)C(=O)N2[C@H]1C[C@@]1(O)c3ccccc3N[C@@H]21`, the result was inactive.

Consider `O=C1N[C@@H](Cc2ccc(O)cc2)C(=O)N2[C@H]1C[C@@]1(O)c3ccccc3N[C@@H]21`, for which the outcome was inactive.

Take `C[C@@H]1NC(=O)[C@@H]2C[C@@]3(O)c4ccccc4N[C@H]3N2C1=O`: the outcome was inactive.

Take `CC(C)C[C@@H]1NC(=O)[C@@H]2C[C@@]3(O)c4ccccc4N[C@H]3N2C1=O`: the outcome was inactive.

The next test relates to Bacillus subtilis. The test is described as follows: Antibacterial activity against Bacillus subtilis […] assessed as inhibition of bacterial growth incubated for 20 hrs by agar disk-diffusion method. It is filed as functional, organism-based.
`O=C1N[C@@H](Cc2c[nH]c3ccccc23)C(=O)N2[C@H]1C[C@@]1(O)c3ccccc3N[C@@H]21`: the outcome was inactive.

Regarding `CSCC[C@@H]1NC(=O)[C@@H]2C[C@@]3(O)c4ccccc4N[C@H]3N2C1=O`, the outcome was inactive.

Take `O=C1N[C@@H](Cc2ccccc2)C(=O)N2[C@H]1C[C@@]1(O)c3ccccc3N[C@@H]21`: the result was inactive.

As for `O=C1N[C@@H](Cc2ccc(O)cc2)C(=O)N2[C@H]1C[C@@]1(O)c3ccccc3N[C@@H]21`, the result was inactive.

In the case of `C[C@@H]1NC(=O)[C@@H]2C[C@@]3(O)c4ccccc4N[C@H]3N2C1=O`, the result was inactive.

For the compound `CC(C)C[C@@H]1NC(=O)[C@@H]2C[C@@]3(O)c4ccccc4N[C@H]3N2C1=O`, the outcome was inactive.

The subject of the next test is Niallia circulans. The experiment in a line: Antibacterial activity against Bacillus circulans NRRL B-380 assessed as inhibition of bacterial growth incubated for 20 hrs by agar disk-diffusion method. It is filed as functional, organism-based.
Take `O=C1N[C@@H](Cc2c[nH]c3ccccc23)C(=O)N2[C@H]1C[C@@]1(O)c3ccccc3N[C@@H]21`: the outcome was inactive.

With `CSCC[C@@H]1NC(=O)[C@@H]2C[C@@]3(O)c4ccccc4N[C@H]3N2C1=O`, the result was inactive.

In the case of `O=C1N[C@@H](Cc2ccccc2)C(=O)N2[C@H]1C[C@@]1(O)c3ccccc3N[C@@H]21`, the result was inactive.

`O=C1N[C@@H](Cc2ccc(O)cc2)C(=O)N2[C@H]1C[C@@]1(O)c3ccccc3N[C@@H]21`: the result was inactive.

`C[C@@H]1NC(=O)[C@@H]2C[C@@]3(O)c4ccccc4N[C@H]3N2C1=O`: the outcome was inactive.

For `CC(C)C[C@@H]1NC(=O)[C@@H]2C[C@@]3(O)c4ccccc4N[C@H]3N2C1=O`, the result was inactive.

Another test relates to Staphylococcus aureus. The experiment in a line: Antibacterial activity against Staphylococcus aureus ATCC29213 assessed as inhibition of bacterial growth incubated for 20 hrs by agar disk-diffusion method. It is filed as functional, organism-based.
Take `O=C1N[C@@H](Cc2c[nH]c3ccccc23)C(=O)N2[C@H]1C[C@@]1(O)c3ccccc3N[C@@H]21`: the outcome was inactive.

On to `CSCC[C@@H]1NC(=O)[C@@H]2C[C@@]3(O)c4ccccc4N[C@H]3N2C1=O`, for which the outcome was inactive.

In the case of `O=C1N[C@@H](Cc2ccccc2)C(=O)N2[C@H]1C[C@@]1(O)c3ccccc3N[C@@H]21`, the result was inactive.

Consider `O=C1N[C@@H](Cc2ccc(O)cc2)C(=O)N2[C@H]1C[C@@]1(O)c3ccccc3N[C@@H]21`, for which the outcome was inactive.

`C[C@@H]1NC(=O)[C@@H]2C[C@@]3(O)c4ccccc4N[C@H]3N2C1=O`: the result was inactive.

As for `CC(C)C[C@@H]1NC(=O)[C@@H]2C[C@@]3(O)c4ccccc4N[C@H]3N2C1=O`, the result was inactive.

The next test concerns Staphylococcus delphini. The test is described as follows: Antibacterial activity against Staphylococcus delphini DSM 20771 assessed as inhibition of bacterial growth incubated for 20 hrs by agar disk-diffusion method. It is filed as functional, organism-based.
In the case of `O=C1N[C@@H](Cc2c[nH]c3ccccc23)C(=O)N2[C@H]1C[C@@]1(O)c3ccccc3N[C@@H]21`, the result was inactive.

Consider `CSCC[C@@H]1NC(=O)[C@@H]2C[C@@]3(O)c4ccccc4N[C@H]3N2C1=O`, for which the outcome was inactive.

For the compound `O=C1N[C@@H](Cc2ccccc2)C(=O)N2[C@H]1C[C@@]1(O)c3ccccc3N[C@@H]21`, the outcome was inactive.

As to `O=C1N[C@@H](Cc2ccc(O)cc2)C(=O)N2[C@H]1C[C@@]1(O)c3ccccc3N[C@@H]21`, the result was inactive.

With `C[C@@H]1NC(=O)[C@@H]2C[C@@]3(O)c4ccccc4N[C@H]3N2C1=O`, the outcome was inactive.

As for `CC(C)C[C@@H]1NC(=O)[C@@H]2C[C@@]3(O)c4ccccc4N[C@H]3N2C1=O`, the result was inactive.

The next test relates to Pseudomonas aeruginosa. The experiment in a line: Antibacterial activity against Pseudomonas aeruginosa ATCC 27853 assessed as inhibition of bacterial growth incubated for 20 hrs by agar disk-diffusion method. It is filed as functional, organism-based.
For `O=C1N[C@@H](Cc2c[nH]c3ccccc23)C(=O)N2[C@H]1C[C@@]1(O)c3ccccc3N[C@@H]21`, the outcome was inactive.

Take `CSCC[C@@H]1NC(=O)[C@@H]2C[C@@]3(O)c4ccccc4N[C@H]3N2C1=O`: the outcome was inactive.

For the compound `O=C1N[C@@H](Cc2ccccc2)C(=O)N2[C@H]1C[C@@]1(O)c3ccccc3N[C@@H]21`, the outcome was inactive.

For `O=C1N[C@@H](Cc2ccc(O)cc2)C(=O)N2[C@H]1C[C@@]1(O)c3ccccc3N[C@@H]21`, the result was inactive.

In the case of `C[C@@H]1NC(=O)[C@@H]2C[C@@]3(O)c4ccccc4N[C@H]3N2C1=O`, the result was inactive.

For the compound `CC(C)C[C@@H]1NC(=O)[C@@H]2C[C@@]3(O)c4ccccc4N[C@H]3N2C1=O`, the result was inactive.
